Results as given in patent US20210113696A1, “IONIC LIQUID COMPOSITIONS FOR TREATMENT OF ROSACEA” (CAGE BIO INC., priority 2018, published 2021).

Assays:
[1] = Conductivity measurement in solvents, solvent blends and gel bases; type: physicochemical
Protocol: Conductivity in mixtures of a solvent in combination with choline and geranic acid were done separately. […]
Ethanol: Samples were made by first starting with 5 grams of each raw material; geranic acid first then repeated with choline (bicarbonate). In summary 1-3 grams of […] was added to the raw material being tested and mixed. A visual observation was made along with a conductivity measurement. […]
(§1) The solvents investigated included: water, propylene glycol, glycerin, PEG400, ethanol, diisopropyl adipate, mineral oil, propylene glycol/ethanol/water, and glycerin/PEGG400/water. […] Observations were taken at each concentration. Conductivity measurements were taken at each titrated point for information only at this stage. Scales on subsequent graphs are appropriate for each solvent's values.
(§2) A visual observation was made along with a conductivity measurement. The process was continued until ˜25 grams of product was reached. The resulting product was stored for later evaluation.
as §2, §2, §2, §2
A visual observation was made along with a conductivity measurement. The process was continued until ˜25 grams of product was reached. The resulting product was stored for later evaluation. […]
(§3) The conductivity is shown in FIG. 32 and the appearance is described in Table 28.

[2] = Visual observation of appearance (solubility, miscibility) in solvents, solvent blends and gel bases; type: physicochemical
Protocol: Conductivity in mixtures of a solvent in combination with choline and geranic acid were done separately.
Propylene glycol: Samples were made by first starting with 5 grams of each raw material; geranic acid first then repeated with choline (bicarbonate). In summary 1-3 grams of propylene glycol was added to the raw material being tested and mixed. A visual observation was made along with a conductivity measurement.
(§4) Ethanol: Samples were made by first starting with 5 grams of each raw material; geranic acid first then repeated with choline (bicarbonate). In summary 1-3 grams of propylene glycol was added to the raw material being tested and mixed. A visual observation was made along with a conductivity measurement.
as §4, with “Diisopropyl adipate:” for “Ethanol:”, “summary,” for “summary”
as §1
No conductivity measurements were taken.
as §2, §2, §2, §2, §2, §2
1-3 grams of water was added and mixed. A visual observation was made along with a conductivity measurement. The process was continued until ˜16 grams of product was reached. The resulting product was stored for later evaluation.
1-3 grams of water was added and mixed. A visual observation was made along with a conductivity measurement. The process was continued until ˜20 grams of product was reached. The resulting product was stored for later evaluation. […]
A similar experiment with the propylene glycol formulation was performed. The results are shown in Table 23, Table 24, and FIG. 28.
as §3

[3] = 19% geranic acid, 81% ethanol 200 proof
[4] = 20% geranic acid, 80% ethanol 200 proof
[5] = 22% geranic acid, 78% ethanol 200 proof
[6] = 24% geranic acid, 76% ethanol 200 proof
[7] = 26% geranic acid, 74% ethanol 200 proof
[8] = 29% geranic acid, 71% ethanol 200 proof
[9] = 33% geranic acid, 67% ethanol 200 proof
[10] = 36% geranic acid, 64% propylene glycol
[11] = 38% geranic acid, 62% ethanol 200 proof
[12] = 45% geranic acid, 55% ethanol 200 proof
[13] = 56% geranic acid, 44% ethanol 200 proof
[14] = 56% geranic acid, 44% propylene glycol
[15] = 71% geranic acid, 29% ethanol 200 proof
[16] = 71% geranic acid, 29% propylene glycol
[17] = 71.43% geranic acid, 28.57% diisopropyl adipate
[18] = 83% geranic acid, 17% ethanol 200 proof
[19] = 83% geranic acid, 17% propylene glycol
[20] = 83.33% geranic acid, 16.67% diisopropyl adipate
[21] = 100.00% geranic acid, 0.00% diisopropyl adipate
[22] = 100% geranic acid, 0% ethanol 200 proof
[23] = 100% geranic acid, 0% propylene glycol

Compound: CC(C)=CCC/C(C)=C/C(=O)O [Geranic Acid, 3,7-dimethyl-2,6-octadienoic acid]
- Conductivity [1, 3]: 0.00064 mS/cm
- Conductivity [1, 4]: 0.00064 mS/cm
- Conductivity [1, 5]: 0.00066 mS/cm
- Conductivity [1, 6]: 0.00068 mS/cm
- Conductivity [1, 7]: 0.00072 mS/cm
- Conductivity [1, 8]: 0.00074 mS/cm
- Conductivity [1, 9]: 0.00083 mS/cm
- Conductivity [1, 10]: 0.00009 mS/cm
- Conductivity [1, 11]: 0.00061 mS/cm
- Conductivity [1, 12]: 0.00048 mS/cm
- Conductivity [1, 13]: 0.00022 mS/cm
- Conductivity [1, 14]: 0.00008 mS/cm
- Conductivity [1, 15]: 0.00003 mS/cm
- Conductivity [1, 16]: 0.00008 mS/cm
- Conductivity [1, 17]: 0 mS/cm
- Conductivity [1, 18]: 0.00001 mS/cm
- Conductivity [1, 19]: 0.00000 mS/cm
- Conductivity [1, 20]: 0 mS/cm
- Conductivity [1, 21]: 0 mS/cm
- Conductivity [1, 22]: 0.00000 mS/cm
- Conductivity [1, 23]: 0.00000 mS/cm
- contribution to the overall conductivity ([1]; mixtures with solvent): effectively zero
- Appearance [2, 3]: Clear solution
- Appearance [2, 4]: Clear solution
- Appearance [2, 5]: Clear solution
- Appearance [2, 6]: Clear solution
- Appearance [2, 7]: Clear solution
- Appearance [2, 8]: Clear solution
- Appearance [2, 9]: Clear solution
- Appearance [2, 10]: Clear solution
- Appearance [2, 11]: Clear solution
- Appearance [2, 12]: Clear solution
- Appearance [2, 13]: Clear solution
- Appearance [2, 14]: Clear solution
- Appearance [2, 15]: Clear solution
- Appearance [2, 16]: Clear solution
- Appearance [2, 17]: Clear solution
- Appearance [2, 18]: Clear solution
- Appearance [2, 19]: Clear solution
- Appearance [2, 20]: Clear solution
- Appearance [2, 21]: Clear solution
- Appearance [2, 22]: Clear solution
- Appearance [2, 23]: Clear solution

Compound: C[N+](C)(C)CCO [Choline Bicarbonate, choline bicarbonate]
- miscibility with diisopropyl adipate [2]: not miscible
